Measured values as given in ChEMBL document CHEMBL5291721, “A preclinical secondary pharmacology resource illuminates target-adverse drug reaction associations of marketed drugs” (Nat Commun, 2023).

Tests used:
Prothrombin = Prothrombin (Homo sapiens, UniProt P00734); type: functional
D(3) dopamine receptor = D(3) dopamine receptor (Homo sapiens, UniProt P35462)
[1] = biological target: Sodium-dependent dopamine transporter (Homo sapiens, UniProt Q01959)
[2] = biological target: T1, Amine oxidase [flavin-containing] A (Homo sapiens, UniProt P21397); type: functional
T1 sequence (P21397 whole entry): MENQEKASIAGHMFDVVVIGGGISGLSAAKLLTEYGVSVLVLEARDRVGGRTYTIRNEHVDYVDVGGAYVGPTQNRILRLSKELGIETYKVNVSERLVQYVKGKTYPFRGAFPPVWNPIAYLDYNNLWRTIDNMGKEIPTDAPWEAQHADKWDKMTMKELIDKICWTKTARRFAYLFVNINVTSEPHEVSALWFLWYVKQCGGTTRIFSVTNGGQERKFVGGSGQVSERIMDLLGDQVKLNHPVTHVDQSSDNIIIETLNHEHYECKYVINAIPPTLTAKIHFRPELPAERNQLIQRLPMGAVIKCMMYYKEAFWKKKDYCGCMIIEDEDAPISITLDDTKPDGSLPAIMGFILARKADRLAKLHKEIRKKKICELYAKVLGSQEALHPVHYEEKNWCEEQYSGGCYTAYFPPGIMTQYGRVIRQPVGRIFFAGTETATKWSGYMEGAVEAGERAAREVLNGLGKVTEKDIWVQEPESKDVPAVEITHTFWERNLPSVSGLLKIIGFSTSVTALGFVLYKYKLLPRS

[3] = biological target: T2, Alpha-2A adrenergic receptor (Homo sapiens, UniProt P08913)
T2 sequence (P08913 whole entry): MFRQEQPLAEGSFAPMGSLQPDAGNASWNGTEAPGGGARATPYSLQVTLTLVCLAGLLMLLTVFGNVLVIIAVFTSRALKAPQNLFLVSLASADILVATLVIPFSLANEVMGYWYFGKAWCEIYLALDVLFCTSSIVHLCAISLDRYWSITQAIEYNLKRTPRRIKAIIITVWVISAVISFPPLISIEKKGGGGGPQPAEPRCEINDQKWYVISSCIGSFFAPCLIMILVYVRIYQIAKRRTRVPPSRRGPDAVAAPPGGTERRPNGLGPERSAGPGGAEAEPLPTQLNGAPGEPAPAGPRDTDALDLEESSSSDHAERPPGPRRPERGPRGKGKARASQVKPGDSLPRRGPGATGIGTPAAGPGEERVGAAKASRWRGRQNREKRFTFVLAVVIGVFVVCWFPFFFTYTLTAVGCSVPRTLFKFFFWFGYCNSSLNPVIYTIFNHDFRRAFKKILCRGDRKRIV

[4] = biological target: Sodium-dependent noradrenaline transporter (Homo sapiens, UniProt P23975)
Sodium-dependent noradrenaline transporter, sequence (P23975 whole entry): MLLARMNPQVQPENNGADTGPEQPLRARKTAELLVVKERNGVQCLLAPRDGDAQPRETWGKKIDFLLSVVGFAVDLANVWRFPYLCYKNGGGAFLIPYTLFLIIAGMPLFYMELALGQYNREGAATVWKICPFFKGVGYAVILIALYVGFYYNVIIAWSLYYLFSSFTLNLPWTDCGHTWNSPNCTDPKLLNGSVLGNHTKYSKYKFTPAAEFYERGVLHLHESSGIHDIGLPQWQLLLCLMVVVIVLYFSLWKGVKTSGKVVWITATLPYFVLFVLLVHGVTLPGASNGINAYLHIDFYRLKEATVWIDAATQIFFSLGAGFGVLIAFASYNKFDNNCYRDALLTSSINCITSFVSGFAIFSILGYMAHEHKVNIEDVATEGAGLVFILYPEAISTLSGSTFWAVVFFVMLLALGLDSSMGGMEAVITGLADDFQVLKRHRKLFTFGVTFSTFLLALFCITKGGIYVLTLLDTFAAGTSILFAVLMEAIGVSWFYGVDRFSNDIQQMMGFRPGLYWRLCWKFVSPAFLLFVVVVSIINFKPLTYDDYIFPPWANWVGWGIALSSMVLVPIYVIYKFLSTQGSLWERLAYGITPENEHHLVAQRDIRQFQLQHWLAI

Acetylcholinesterase = Acetylcholinesterase (Homo sapiens, UniProt P22303); type: functional
Acetylcholinesterase, sequence (P22303 whole entry): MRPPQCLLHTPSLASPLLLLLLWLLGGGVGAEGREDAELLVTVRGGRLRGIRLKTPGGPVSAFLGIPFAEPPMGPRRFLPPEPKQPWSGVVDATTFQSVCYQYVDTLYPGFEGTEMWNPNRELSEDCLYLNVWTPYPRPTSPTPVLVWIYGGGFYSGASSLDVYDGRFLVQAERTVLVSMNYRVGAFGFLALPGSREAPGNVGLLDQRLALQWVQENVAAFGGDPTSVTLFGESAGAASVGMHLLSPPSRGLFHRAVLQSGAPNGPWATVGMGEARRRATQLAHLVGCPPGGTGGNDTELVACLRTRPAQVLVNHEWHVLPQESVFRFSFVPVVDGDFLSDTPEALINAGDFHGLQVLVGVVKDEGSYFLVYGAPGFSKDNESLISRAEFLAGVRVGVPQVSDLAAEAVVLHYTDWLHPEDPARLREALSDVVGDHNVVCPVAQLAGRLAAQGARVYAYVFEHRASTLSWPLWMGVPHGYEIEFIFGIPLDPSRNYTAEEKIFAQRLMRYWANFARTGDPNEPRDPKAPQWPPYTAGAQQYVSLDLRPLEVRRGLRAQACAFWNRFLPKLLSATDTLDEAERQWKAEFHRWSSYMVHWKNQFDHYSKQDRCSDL

D(1A) dopamine receptor = D(1A) dopamine receptor (Homo sapiens, UniProt P21728)
D(1A) dopamine receptor, sequence (P21728 whole entry): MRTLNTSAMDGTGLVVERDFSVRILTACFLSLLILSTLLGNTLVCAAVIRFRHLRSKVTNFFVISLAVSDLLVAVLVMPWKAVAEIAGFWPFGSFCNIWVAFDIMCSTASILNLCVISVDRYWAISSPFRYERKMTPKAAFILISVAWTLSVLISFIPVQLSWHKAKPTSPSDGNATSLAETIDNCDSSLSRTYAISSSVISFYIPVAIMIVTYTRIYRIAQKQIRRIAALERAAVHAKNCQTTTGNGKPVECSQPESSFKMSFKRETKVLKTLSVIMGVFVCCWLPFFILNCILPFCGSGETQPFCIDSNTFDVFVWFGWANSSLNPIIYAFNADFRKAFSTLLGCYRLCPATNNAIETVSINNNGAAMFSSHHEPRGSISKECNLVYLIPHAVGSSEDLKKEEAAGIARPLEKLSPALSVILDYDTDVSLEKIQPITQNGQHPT

[5] = biological target: Prostaglandin G/H synthase 1 (Homo sapiens, UniProt P23219); type: functional
Prostaglandin G/H synthase 1, sequence (P23219 whole entry): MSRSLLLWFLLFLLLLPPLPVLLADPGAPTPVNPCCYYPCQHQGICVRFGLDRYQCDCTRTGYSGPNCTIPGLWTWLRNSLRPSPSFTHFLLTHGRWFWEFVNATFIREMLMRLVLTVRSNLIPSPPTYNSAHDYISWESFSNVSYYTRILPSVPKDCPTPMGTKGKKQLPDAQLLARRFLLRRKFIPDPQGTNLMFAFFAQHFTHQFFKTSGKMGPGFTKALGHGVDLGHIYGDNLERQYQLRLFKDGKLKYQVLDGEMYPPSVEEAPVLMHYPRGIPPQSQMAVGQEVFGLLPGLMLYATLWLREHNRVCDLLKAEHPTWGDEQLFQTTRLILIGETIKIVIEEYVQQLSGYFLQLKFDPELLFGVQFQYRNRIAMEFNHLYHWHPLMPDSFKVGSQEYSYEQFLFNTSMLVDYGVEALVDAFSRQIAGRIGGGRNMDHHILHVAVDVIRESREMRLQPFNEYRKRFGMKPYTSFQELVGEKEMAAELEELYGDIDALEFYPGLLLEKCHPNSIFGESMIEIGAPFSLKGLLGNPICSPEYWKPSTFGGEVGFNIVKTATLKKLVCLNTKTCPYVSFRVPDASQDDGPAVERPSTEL

[6] = biological target: 3',5'-cyclic-AMP phosphodiesterase 4A (Homo sapiens, UniProt P27815); type: functional
3',5'-cyclic-AMP phosphodiesterase 4A, sequence (P27815 whole entry): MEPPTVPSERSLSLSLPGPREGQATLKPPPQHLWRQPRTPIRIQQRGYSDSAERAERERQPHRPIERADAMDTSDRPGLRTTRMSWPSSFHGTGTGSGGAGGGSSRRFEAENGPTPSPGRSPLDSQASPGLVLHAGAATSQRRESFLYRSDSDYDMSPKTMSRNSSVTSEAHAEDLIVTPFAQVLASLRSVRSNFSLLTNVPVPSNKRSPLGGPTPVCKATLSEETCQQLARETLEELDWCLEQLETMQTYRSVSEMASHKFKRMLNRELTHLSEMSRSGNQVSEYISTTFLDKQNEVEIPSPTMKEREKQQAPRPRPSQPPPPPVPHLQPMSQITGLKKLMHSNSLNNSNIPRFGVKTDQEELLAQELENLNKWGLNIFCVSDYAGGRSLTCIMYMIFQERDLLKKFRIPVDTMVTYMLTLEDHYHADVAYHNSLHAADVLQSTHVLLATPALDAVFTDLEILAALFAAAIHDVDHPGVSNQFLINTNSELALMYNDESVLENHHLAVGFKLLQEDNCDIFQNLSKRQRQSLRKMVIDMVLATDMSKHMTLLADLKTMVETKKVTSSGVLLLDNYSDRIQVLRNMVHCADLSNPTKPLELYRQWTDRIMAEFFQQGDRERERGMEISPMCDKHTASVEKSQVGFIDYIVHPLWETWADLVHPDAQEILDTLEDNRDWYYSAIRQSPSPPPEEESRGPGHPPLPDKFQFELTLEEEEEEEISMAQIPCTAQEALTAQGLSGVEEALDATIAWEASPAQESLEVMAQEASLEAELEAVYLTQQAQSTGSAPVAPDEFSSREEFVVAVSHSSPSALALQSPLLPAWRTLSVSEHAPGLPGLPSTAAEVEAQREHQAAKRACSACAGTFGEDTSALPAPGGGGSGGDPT
Also: assay procedure not described here.

Sodium-dependent dopamine transporter, sequence (Q01959 whole entry): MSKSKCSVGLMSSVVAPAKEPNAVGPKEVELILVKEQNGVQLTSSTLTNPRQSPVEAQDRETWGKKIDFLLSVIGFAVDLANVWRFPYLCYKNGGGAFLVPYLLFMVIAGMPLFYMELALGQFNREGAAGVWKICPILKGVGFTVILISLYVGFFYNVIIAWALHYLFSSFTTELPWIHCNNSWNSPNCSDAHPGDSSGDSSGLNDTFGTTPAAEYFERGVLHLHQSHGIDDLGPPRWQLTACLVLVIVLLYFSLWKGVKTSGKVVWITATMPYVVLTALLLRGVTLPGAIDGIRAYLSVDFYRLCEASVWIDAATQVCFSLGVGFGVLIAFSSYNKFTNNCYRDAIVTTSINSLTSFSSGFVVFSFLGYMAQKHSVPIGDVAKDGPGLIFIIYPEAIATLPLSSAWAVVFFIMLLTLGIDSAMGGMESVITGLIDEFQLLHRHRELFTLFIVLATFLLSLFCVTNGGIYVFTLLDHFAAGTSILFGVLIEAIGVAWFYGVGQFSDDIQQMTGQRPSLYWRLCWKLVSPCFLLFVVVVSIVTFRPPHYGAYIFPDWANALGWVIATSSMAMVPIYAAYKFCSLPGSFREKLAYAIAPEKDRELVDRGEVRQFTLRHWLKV
D(3) dopamine receptor, sequence (P35462 whole entry): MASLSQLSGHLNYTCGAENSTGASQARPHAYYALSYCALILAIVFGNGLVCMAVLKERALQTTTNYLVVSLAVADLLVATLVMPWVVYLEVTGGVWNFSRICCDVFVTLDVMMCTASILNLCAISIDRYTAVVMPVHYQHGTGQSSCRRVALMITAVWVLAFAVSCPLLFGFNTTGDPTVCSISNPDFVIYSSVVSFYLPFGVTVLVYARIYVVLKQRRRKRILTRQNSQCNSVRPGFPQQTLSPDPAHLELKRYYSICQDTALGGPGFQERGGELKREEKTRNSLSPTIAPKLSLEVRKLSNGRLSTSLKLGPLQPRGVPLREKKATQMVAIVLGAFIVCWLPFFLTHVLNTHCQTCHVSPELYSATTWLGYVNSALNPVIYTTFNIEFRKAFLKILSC

SMILES | AC50 (Prothrombin) | AC50 (D(3) dopamine receptor) | AC50 [1] | AC50 [2] | AC50 [3] | AC50 [4] | AC50 (Acetylcholinesterase) | AC50 (D(1A) dopamine receptor) | AC50 [5] | AC50 [6]
C[C@H]1O[C@@H](n2cc(F)c(=O)[nH]c2=O)[C@H](O)[C@@H]1O [DOXIFLURIDINE] | > 30 µM | > 30 µM | > 30 µM | > 30 µM | > 30 µM | > 30 µM | > 30 µM | > 30 µM | > 30 µM | > 30 µM
O=C(O)c1cc(/N=N/c2ccc(O)c(C(=O)O)c2)ccc1O [OLSALAZINE] | > 30 µM | > 30 µM | > 30 µM | > 30 µM | > 30 µM | > 30 µM | > 30 µM | > 30 µM | > 30 µM | 13.2 µM
C=CCN1CC[C@]23CCCC[C@H]2[C@H]1Cc1ccc(O)cc13 [LEVALLORPHAN] | > 30 µM | 23.4 µM | > 30 µM | > 30 µM | > 30 µM | > 30 µM | 16.7 µM | > 30 µM | 8.54 µM | > 30 µM
CC(C)(O)CNc1nc(Nc2ccnc(C(F)(F)F)c2)nc(-c2cccc(C(F)(F)F)n2)n1 [ENASIDENIB] | > 30 µM | > 30 µM | > 30 µM | > 30 µM | > 30 µM | > 30 µM | > 30 µM | > 30 µM | 9.18 µM | > 30 µM
O=C(O)COc1ccc(C(=O)c2cccs2)c(Cl)c1Cl | > 30 µM | > 30 µM | > 30 µM | > 30 µM | > 30 µM | > 30 µM | > 30 µM | > 30 µM | > 30 µM | > 30 µM
CNC(=O)Oc1cccc2ccccc12 [CARBARIL] | > 30 µM | > 30 µM | > 30 µM | > 30 µM | > 30 µM | > 30 µM | > 30 µM | > 30 µM | 4.19 µM | > 30 µM
CC(CN1CC(=O)NC(=O)C1)N1CC(=O)NC(=O)C1 (stereo not given) [RAZOXANE] | > 30 µM | > 30 µM | > 30 µM | > 30 µM | > 30 µM | > 30 µM | > 10 µM | > 30 µM | > 3 µM | > 30 µM
N[C@@H](CS)C(=O)O [CYSTEINE] | > 30 µM | > 30 µM | > 30 µM | > 30 µM | > 30 µM | > 30 µM | > 30 µM | > 30 µM | > 30 µM | > 30 µM
CCOC(=O)c1c(C)cc2c(CO)n[nH]c(=O)c2c1C [OXAGRELATE] | > 30 µM | > 30 µM | > 30 µM | > 30 µM | > 30 µM | > 30 µM | > 30 µM | > 30 µM | > 30 µM | > 30 µM
CN1CCCCC1CCN1c2ccccc2Sc2ccc([S+](C)[O-])cc21 (stereo not given) [MESORIDAZINE] | > 30 µM | 0.0197 µM | 19.8 µM | > 30 µM | 2.59 µM | 28.8 µM | > 30 µM | 0.0712 µM | > 30 µM | > 30 µM
Nc1ccc(C(=O)Oc2ccccc2)c(O)c1 [PHENYL AMINOSALICYLATE] | > 30 µM | > 30 µM | 0.235 µM | > 30 µM | > 30 µM | 0.777 µM | > 30 µM | > 30 µM | > 30 µM | 14.5 µM
CCn1cc(C(=O)O)c(=O)c2cc3c(cc21)OCO3 [OXOLINIC ACID] | > 30 µM | > 30 µM | > 30 µM | > 30 µM | > 30 µM | > 30 µM | > 30 µM | > 30 µM | > 30 µM | > 30 µM
OC[C@H]1O[C@@H](c2ccc(F)c(Cc3cc4ccccc4s3)c2)[C@H](O)[C@@H](O)[C@@H]1O [IPRAGLIFLOZIN] | > 30 µM | > 30 µM | 7.69 µM | > 30 µM | > 30 µM | > 30 µM | > 30 µM | > 30 µM | > 30 µM | > 30 µM
CCOC(=O)C1=C[C@@H](OC(CC)CC)[C@H](NC(C)=O)[C@@H](N)C1 [OSELTAMIVIR] | > 30 µM | > 30 µM | > 30 µM | > 30 µM | > 30 µM | > 30 µM | > 30 µM | > 30 µM | > 30 µM | > 30 µM
C[C@]1(Cn2ccnn2)[C@H](C(=O)O)N2C(=O)C[C@H]2S1(=O)=O [TAZOBACTAM] | > 30 µM | > 30 µM | > 30 µM | > 30 µM | > 30 µM | > 30 µM | > 30 µM | > 30 µM | > 30 µM | > 30 µM
COc1c2ccoc2cc2oc(=O)ccc12 [BERGAPTEN] | > 30 µM | > 30 µM | > 30 µM | > 10 µM | > 30 µM | > 30 µM | > 30 µM | > 30 µM | > 30 µM | > 30 µM
OC[C@H]1O[C@@H](c2ccc(Cl)c(Cc3ccc(O[C@H]4CCOC4)cc3)c2)[C@H](O)[C@@H](O)[C@@H]1O [EMPAGLIFLOZIN] | > 30 µM | > 30 µM | > 30 µM | > 30 µM | > 30 µM | > 30 µM | > 30 µM | > 30 µM | > 30 µM | > 30 µM
CC(C)OC(=O)CCC/C=C\C[C@@H]1[C@@H](/C=C/C(F)(F)COc2ccccc2)[C@H](O)C[C@@H]1O [TAFLUPROST] | > 30 µM | > 30 µM | > 30 µM | > 30 µM | > 30 µM | > 30 µM | > 30 µM | > 30 µM | > 30 µM | > 30 µM
CC[C@@]1(O)C(=O)OCc2c1cc1n(c2=O)Cc2cc3c([N+](=O)[O-])cccc3nc2-1 [RUBITECAN] | > 30 µM | > 30 µM | > 30 µM | > 30 µM | > 30 µM | > 30 µM | 3.65 µM | > 30 µM | > 30 µM | > 30 µM
OC[C@@H](O)[C@@H](O)[C@H](O)[C@@H](O)CO [SORBITOL] | > 30 µM | > 30 µM | > 30 µM | > 30 µM | > 30 µM | > 30 µM | > 30 µM | > 30 µM | > 30 µM | > 30 µM
CC[C@H]1OC(=O)[C@H](C)C(=O)[C@H](C)[C@@H](O[C@@H]2O[C@H](C)C[C@H](N(C)C)[C@H]2O)[C@](C)(OC)C[C@@H](C)C(=O)[C@H](C)[C@H]2N(CCCCn3cnc(-c4cccnc4)c3)C(=O)O[C@]12C [TELITHROMYCIN] | > 30 µM | > 30 µM | > 30 µM | > 30 µM | > 30 µM | > 30 µM | > 30 µM | > 30 µM | 20.6 µM | > 30 µM
N[C@@H](CO)C(=O)O [SERINE] | > 30 µM | > 30 µM | > 30 µM | > 10 µM | > 30 µM | > 30 µM | > 30 µM | > 30 µM | > 30 µM | > 30 µM
CC(=O)Oc1cc(C(F)(F)F)ccc1C(=O)O [TRIFLUSAL] | > 30 µM | > 30 µM | > 30 µM | > 30 µM | > 30 µM | > 30 µM | > 30 µM | > 30 µM | > 30 µM | > 30 µM
